Results on 27 compounds are retold here after US20190135834A1, “5-SUBSTITUTED AZABENZIMIDAZOLE DERIVATIVE HAVING ???? ACTIVATION ACTION” (Shionogi & Co., Ltd., priority 2016, published 2019).

The assay deals with T1, Human AMPK α2ß2γ1 (Homo sapiens, UniProt O43741+P54646).
T1 construct: The full length cDNAs of human AMPK ß2 (NM_005399.3) and human AMPK α2 (NM_006252.3); The full length cDNAs of human AMPK ß2 (NM_005399.3); 6xHis (N); made in house; host or cells: Escherichia coli BL21 CodonPlus (DE3)-RIL
T1 sequence (P54646 whole entry): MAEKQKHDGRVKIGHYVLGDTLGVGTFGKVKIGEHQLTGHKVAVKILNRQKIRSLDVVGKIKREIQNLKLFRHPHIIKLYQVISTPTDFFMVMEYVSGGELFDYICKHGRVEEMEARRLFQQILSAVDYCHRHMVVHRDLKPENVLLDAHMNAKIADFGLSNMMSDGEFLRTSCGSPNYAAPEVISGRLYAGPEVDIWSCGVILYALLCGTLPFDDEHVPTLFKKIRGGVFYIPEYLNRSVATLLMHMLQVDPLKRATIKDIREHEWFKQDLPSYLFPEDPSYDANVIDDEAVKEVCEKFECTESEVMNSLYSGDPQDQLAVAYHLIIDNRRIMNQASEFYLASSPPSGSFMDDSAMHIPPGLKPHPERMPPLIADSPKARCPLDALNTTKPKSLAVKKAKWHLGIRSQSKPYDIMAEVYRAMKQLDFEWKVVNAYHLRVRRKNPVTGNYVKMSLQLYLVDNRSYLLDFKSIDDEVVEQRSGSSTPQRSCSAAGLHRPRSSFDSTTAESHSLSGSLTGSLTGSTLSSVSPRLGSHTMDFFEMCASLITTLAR
T1 sequence (O43741 whole entry): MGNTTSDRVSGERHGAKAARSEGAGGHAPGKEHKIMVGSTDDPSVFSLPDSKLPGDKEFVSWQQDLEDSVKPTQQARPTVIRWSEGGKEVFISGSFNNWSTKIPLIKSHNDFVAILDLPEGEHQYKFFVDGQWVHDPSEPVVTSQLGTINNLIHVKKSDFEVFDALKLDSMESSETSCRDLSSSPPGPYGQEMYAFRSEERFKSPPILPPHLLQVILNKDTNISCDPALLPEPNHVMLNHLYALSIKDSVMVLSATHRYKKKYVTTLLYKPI
T1 sequence (P54619 whole entry partner): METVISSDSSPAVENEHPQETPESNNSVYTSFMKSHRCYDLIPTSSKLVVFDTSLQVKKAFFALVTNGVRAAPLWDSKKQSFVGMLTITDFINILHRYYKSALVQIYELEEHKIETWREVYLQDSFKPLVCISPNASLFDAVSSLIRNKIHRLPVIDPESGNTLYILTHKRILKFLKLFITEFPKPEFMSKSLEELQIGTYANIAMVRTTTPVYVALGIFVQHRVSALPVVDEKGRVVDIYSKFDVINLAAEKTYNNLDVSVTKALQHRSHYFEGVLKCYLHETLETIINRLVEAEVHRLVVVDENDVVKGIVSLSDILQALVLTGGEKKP
The experiment in a line: Test Example 2: evaluation of an activator for AMP-activated protein kinase (AMPK), LabChip mobility shift assay with CaMKK2-phosphorylated enzyme. It counts as biochemical. Conditions: for EC150 (compound concentration showing 150% relative to the control (100%)): FL-Peptide 7 substrate, 25° C., 2 hours; for Emax / Emax (maximum rate of increase in activity within the measurement range): relative to control (100%); for Emax: read-out: Emax (maximum rate of increase in activity within the measurement range). As for the experimental part:
The full length cDNAs of human AMPK ß2 (NM_005399.3) and human AMPK α2 (NM_006252.3) were inserted into the MCS1 and MCS2 of the pETDuet-1 vector to prepare a human AMPK ß2 and human AMPK α2 (6× His tag at the 5′ terminus) expressing plasmid. The plasmid was cotransfected with an expression plasmid, in which the full length cDNA of human AMPK γ1 (NM_002733.3) had been inserted into pET28b(+), into BL21 CodonPlus (DE3)-RIL to obtain an expression strain. The expression strain was cultured in TB medium, followed by induction with 0.5 mM IPTG, and cultured at 25° C. for 3 hours and then harvested. After ultrasonication, supernatant was collected and applied to Histrap FF column (GE) and RESOURCE Q column (GE) to prepare 12.5 mg of purified sample containing three types of subunit from 1.8 L of broth.
Preparation method of human CaMKK2 used to impart activity to AMPK An expression vector, in which the full length cDNA of human CAMKK ß (NM_172226.1) had been inserted into pGEX-6P-3, was transfected into BL21 Star (DE3). The expression strain was cultured in TB medium, followed by induction with 0.5 mM IPTG, and cultured at 25° C. for 3 hours and then harvested. After ultrasonication, supernatant was collected and applied to GSTrap FF column (GE) to prepare 14 mg of GST-fused CAMKK ß from 720 ml of broth.
Thus, phosphorylation treatment was carried out as pretreatment.
Human AMPK α2ß2γ1 in an amount to give a conversion rate of approximately 10% by reaction for 2 hours, and CaMKK2 in an amount capable of sufficiently imparting activity to AMPK for one hour were mixed in a buffer solution consisting of a 50 mM HEPES-NaOH buffer solution (pH 7.0), 100 mM NaCl, 5 mM magnesium chloride, 0.1% bovine serum albumin, 0.2 mM sodium orthovanadate(V), 1 mM ethylene glycol-bis(2-aminoethyl ether)-N,N,N′,N′-tetraacetic acid (EGTA), 5 mM disodium ß-glycerophosphate, 1 mM dithiothreitol and 0.2 mM ATP, and the resulting liquid was left to stand at 25° C. for 1 to 1.5 hours to sufficiently phosphorylate AMPK.
After that, to the enzyme liquid, which had been subjected to phosphorylation treatment, a compound dissolved in DMSO was added so as to have a 1% DMSO concentration. The resulting liquid was left to stand for 10 minutes.
To the liquid, a substrate solution consisting of a 50 mM HEPES-NaOH buffer solution (pH 7.0), 100 mM NaCl, 10 mM magnesium chloride, 0.1% bovine serum albumin, 0.2 mM sodium orthovanadate(V), 1 mM ethylene glycol-bis(2-aminoethyl ether)-N,N,N′,N′-tetraacetic acid (EGTA), 5 mM disodium ß-glycerophosphate, 2 mM dithiothreitol, 0.4 mM ATP and 3 μM FL-Peptide 7 (manufactured by Caliper Life Sciences, Inc.) was added in equal amount (10 μl in total). The resulting liquid was allowed to react at 25° C. for 2 hours, and 10 μl of 20 mM EDTA was added thereto to stop the reaction.
To detect phosphorylated fluorescent substrates, the reaction mixture was applied to a measuring device, LabChip EZ Reader II manufactured by Caliper Life Science, Inc., for detecting fluorescence by using differences in mobility due to differences in charge. The setting conditions for the device were pressure, −1.5 PSI; upstream voltage, −2250 V; downstream voltage, −400 V; post sample buffer sip time, 40 seconds; final delay, 120 seconds; and peak order, Product First.
A conversion rate was calculated from the peak heights of the obtained substrate and product. The conversion rate when not containing a compound was used as a control, and a concentration dependent curve was made by plotting the rate of increase in activity to the control at each concentration of a compound.

By Emax is commonly meant the maximal effect, on the per cent scale that the assay sets. Regarding `O[C@@H]1CO[C@H]2[C@@H]1OC[C@H]2Oc1nc2nc(NC3CCc4cc(OCCN5CCCCC5)cc(F)c43)c(Cl)cc2[nH]1` (stereo partly drawn) [Compound I-1-38], the “EC150 (compound concentration showing 150% relative to the control (100%))” value stood at 8 nM and the Emax turned out to be 392%.
In the same order, the values of `Cn1ccc(-c2cc(F)c3c(c2)CCC3Nc2nc3nc(O[C@@H]4CO[C@H]5[C@@H]4OC[C@H]5O)[nH]c3cc2Cl)cc1=O` (stereo partly drawn) [Compound I-1-39] are 2.9 nM and 384%.
In the same order, the values of `NC(=O)COc1cc(F)c2c(c1)CCC2Nc1nc2nc(O[C@@H]3CO[C@H]4[C@@H]3OC[C@H]4O)[nH]c2cc1Cl` (stereo partly drawn) [Compound I-1-42] are 2.1 nM and 391%.
As for `O=C(COc1cc(F)c2c(c1)CCC2Nc1nc2nc(O[C@@H]3CO[C@H]4[C@@H]3OC[C@H]4O)[nH]c2cc1Cl)NCO` (stereo partly drawn) [Compound I-1-43], the “EC150 (compound concentration showing 150% relative to the control (100%))” value is 6.5 nM and the Emax was 392%.
`Cn1cc(-c2cc(F)c3c(c2)CCC3Nc2nc3nc(O[C@@H]4CO[C@H]5[C@@H]4OC[C@H]5O)[nH]c3cc2Cl)cn1` (stereo partly drawn) [Compound I-1-44]: the “EC150 (compound concentration showing 150% relative to the control (100%))” value turned out to be 5.6 nM and the Emax came to 422%.
For the compound `CC(=O)Nc1cc(F)c2c(c1)CCC2Nc1nc2nc(O[C@@H]3CO[C@H]4[C@@H]3OC[C@H]4O)[nH]c2cc1Cl` (stereo partly drawn) [Compound I-1-45], the “EC150 (compound concentration showing 150% relative to the control (100%))” value turned out to be 4.7 nM and the Emax was determined as 435%.
In the case of `O[C@@H]1CO[C@H]2[C@@H]1OC[C@H]2Oc1nc2nc(NC3CCc4cc(-c5ccccc5)cnc43)c(Cl)cc2[nH]1` (stereo partly drawn) [Compound I-1-46], the “EC150 (compound concentration showing 150% relative to the control (100%))” value was 54 nM and the Emax worked out at 381%.
For `NC(=O)COc1cnc2c(c1)CCC2Nc1nc2nc(O[C@@H]3CO[C@H]4[C@@H]3OC[C@H]4O)[nH]c2cc1Cl` (stereo partly drawn) [Compound I-1-47], the “EC150 (compound concentration showing 150% relative to the control (100%))” value is reported as 14 nM and the Emax was determined as 390%.
As to `O[C@@H]1CO[C@H]2[C@@H]1OC[C@H]2Oc1nc2nc(NC3CCc4cc(C5=CCOCC5)cnc43)c(Cl)cc2[nH]1` (stereo partly drawn) [Compound I-1-48], the “EC150 (compound concentration showing 150% relative to the control (100%))” value stood at 15 nM and the Emax turned out to be 393%.
Regarding `O[C@@H]1CO[C@H]2[C@@H]1OC[C@H]2Oc1nc2nc(NC3CCc4cc(NCC(F)(F)F)cnc43)c(Cl)cc2[nH]1` (stereo partly drawn) [Compound I-1-70], the “EC150 (compound concentration showing 150% relative to the control (100%))” value is reported as 21 nM and the Emax was 384%.
In the case of `C/C=C/c1cc(F)c2c(c1)CCC2Oc1nc2nc(O[C@@H]3CO[C@H]4[C@@H]3OC[C@H]4O)[nH]c2cc1Cl` (stereo partly drawn) [Compound I-1-72], the “EC150 (compound concentration showing 150% relative to the control (100%))” value came out at 13 nM and the Emax worked out at 375%.
On the same counts, the results for `O[C@@H]1CO[C@H]2[C@@H]1OC[C@H]2Oc1nc2nc(OC3CCc4cc(-c5cscn5)cc(F)c43)c(Cl)cc2[nH]1` (stereo partly drawn) [Compound I-1-74] are 9.9 nM and 373%.
On the same counts, the results for `Cn1nccc1-c1cc(F)c2c(c1)CCC2Oc1nc2nc(O[C@@H]3CO[C@H]4[C@@H]3OC[C@H]4O)[nH]c2cc1Cl` (stereo partly drawn) [Compound I-1-76] are 15 nM and 378%.
Take `Cn1cccc(-c2cc(F)c3c(c2)CCC3Oc2nc3nc(O[C@@H]4CO[C@H]5[C@@H]4OC[C@H]5O)[nH]c3cc2Cl)c1=O` (stereo partly drawn) [Compound I-1-77]: the “EC150 (compound concentration showing 150% relative to the control (100%))” value is 3.3 nM and the Emax is 386%.
Regarding `O=C1CCCN1CCOc1cc(F)c2c(c1)CCC2Nc1nc2nc(O[C@@H]3CO[C@H]4[C@@H]3OC[C@H]4O)[nH]c2cc1Cl` (stereo partly drawn) [Compound I-1-79], the “EC150 (compound concentration showing 150% relative to the control (100%))” value came out at 4.2 nM and the “Emax (maximum rate of increase in activity within the measurement range)” value came out at 385%.
For `OCCCOc1cc(F)c2c(c1)CCC2Nc1nc2nc(O[C@@H]3CO[C@H]4[C@@H]3OC[C@H]4O)[nH]c2cc1Cl` (stereo partly drawn) [Compound I-1-81], the “EC150 (compound concentration showing 150% relative to the control (100%))” value came to 1.6 nM and the Emax came out at 387%.
`O[C@@H]1CO[C@H]2[C@@H]1OC[C@H]2Oc1nc2nc(NC3CCc4cc(OCC5CCO5)cc(F)c43)c(Cl)cc2[nH]1` (stereo partly drawn) [Compound I-1-83]: the “EC150 (compound concentration showing 150% relative to the control (100%))” value is reported as 2.2 nM and the Emax came out at 414%.
Consider `COc1ccc(-c2cc(F)c3c(c2)CCC3Nc2nc3nc(O[C@@H]4CO[C@H]5[C@@H]4OC[C@H]5O)[nH]c3cc2Cl)cn1` (stereo partly drawn) [Compound I-1-86], for which the “EC150 (compound concentration showing 150% relative to the control (100%))” value is given as 28 nM and the “Emax (maximum rate of increase in activity within the measurement range)” value stood at 379%.
Regarding `CC(C)(O)CCOc1cc(F)c2c(c1)CCC2Nc1nc2nc(O[C@@H]3CO[C@H]4[C@@H]3OC[C@H]4O)[nH]c2cc1Cl` (stereo partly drawn) [Compound I-1-88], the “EC150 (compound concentration showing 150% relative to the control (100%))” value is given as 5.9 nM and the maximal effect (Emax) is 376%.
Turning to `CCOc1cc(F)c2c(c1)CCC2Nc1nc2nc(O[C@@H]3CO[C@H]4[C@@H]3OC[C@H]4O)[nH]c2cc1Cl` (stereo partly drawn) [Compound I-1-90], the “EC150 (compound concentration showing 150% relative to the control (100%))” value was 11 nM and the Emax came to 382%.
Regarding `O[C@@H]1CO[C@H]2[C@@H]1OC[C@H]2Oc1nc2nc(NC3CCc4cc(-c5ccnnc5)cc(F)c43)c(Cl)cc2[nH]1` (stereo partly drawn) [Compound I-1-91], the “EC150 (compound concentration showing 150% relative to the control (100%))” value stood at 1.2 nM and the maximum response (Emax) was 466%.
On the same counts, the results for `O[C@@H]1CO[C@H]2[C@@H]1OC[C@H]2Oc1nc2nc(NC3CCc4cc(OC5CCNCC5)cc(F)c43)c(Cl)cc2[nH]1` (stereo partly drawn) [Compound I-1-93] are 4 nM and 444%.
On to `COC/C=C/c1cc(F)c2c(c1)CC[C@@H]2Nc1nc2nc(O[C@@H]3CO[C@H]4[C@@H]3OC[C@H]4O)[nH]c2cc1Cl` [Compound I-1-94], for which the “EC150 (compound concentration showing 150% relative to the control (100%))” value was 5.6 nM and the Emax came to 416%.
For `CCOCCOc1cc(F)c2c(c1)CC[C@@H]2Nc1nc2nc(O[C@@H]3CO[C@H]4[C@@H]3OC[C@H]4O)[nH]c2cc1Cl` [Compound I-1-95], the “EC150 (compound concentration showing 150% relative to the control (100%))” value was found to be 1.3 nM and the Emax was 424%.
On the same counts, the results for `O[C@@H]1CO[C@H]2[C@@H]1OC[C@H]2Oc1nc2nc(NC3CCc4cc(OCCN5CCOCC5)cc(F)c43)c(Cl)cc2[nH]1` (stereo partly drawn) [Compound I-1-96] are 3.6 nM and 430%.
In the same order, the values of `O[C@@H]1CO[C@H]2[C@@H]1OC[C@H]2Oc1nc2nc(NC3CCc4cc(OCCN5CCCC5)cc(F)c43)c(Cl)cc2[nH]1` (stereo partly drawn) [Compound I-1-97] are 2.1 nM and 433%.
Turning to `O=C1CCCN1CCOc1cc(F)c2c(c1)CCC2Nc1nc2nc(O[C@@H]3CO[C@H]4[C@@H]3OC[C@H]4O)[nH]c2cc1Cl` (stereo partly drawn) [Compound I-1-98], the “EC150 (compound concentration showing 150% relative to the control (100%))” value amounted to 3.6 nM and the “Emax (maximum rate of increase in activity within the measurement range)” value was 434%.
